The subject of the assay is SARS-CoV-2 spike RBD. In words: Spike RBD-mCRP binding ELISA. The note with it: His-tagged proteins expressed in E. coli, n = 3. The method, then: The interactions of the spike-RBD with mCRP or CRP were also examined by enzyme-linked immunosorbent assay (ELISA) using mCRP/CRP-specific mAbs. Briefly, 100 μL of spike-RBD (1μg/mL) in Tris-buffered saline (TBS; 10 mM Tris, 140 mM NaCl, pH 7.4) was added per well to coat in 96-well microplates overnight at 4°C. The wells were then washed three times with TBS containing 0.02% Tween-20 for 5 min and blocked with 1% bovine serum albumin (BSA) in TBS for 1 h at 37°C. Next, mCRP was added and the plates were incubated for 1 h at 37°C. The color was developed by adding tetramethyl benzidine (TMB) to the wells and the color development was stopped with 1 M H2SO4.
(An ELISA detects its analyte on a solid surface through an enzyme-linked reagent.)

For WT mCRP, the “binding of mCRP wild type or mutants to the spike RBD (ELISA)” value is “bound”.

The record behind these values is paper PMC9304929, “The Cholesterol-Binding Sequence in Monomeric C-Reactive Protein Binds to the SARS-CoV-2 Spike Receptor-Binding Domain and Blocks Interaction With Angiotensin-Converting Enzyme 2” (Frontiers in Immunology, 2022).
